Values joined by “and” are separate entries in the source; they are usually repeats but may differ in a detail not shown here. Equal values may be shown once.
Target: PIK3CG (human) (UniProt P48736)
Assay: Inhibition of PIK3CG Kinase Activity

Chain of PIK3CG (human) (P48736 whole entry, looked up): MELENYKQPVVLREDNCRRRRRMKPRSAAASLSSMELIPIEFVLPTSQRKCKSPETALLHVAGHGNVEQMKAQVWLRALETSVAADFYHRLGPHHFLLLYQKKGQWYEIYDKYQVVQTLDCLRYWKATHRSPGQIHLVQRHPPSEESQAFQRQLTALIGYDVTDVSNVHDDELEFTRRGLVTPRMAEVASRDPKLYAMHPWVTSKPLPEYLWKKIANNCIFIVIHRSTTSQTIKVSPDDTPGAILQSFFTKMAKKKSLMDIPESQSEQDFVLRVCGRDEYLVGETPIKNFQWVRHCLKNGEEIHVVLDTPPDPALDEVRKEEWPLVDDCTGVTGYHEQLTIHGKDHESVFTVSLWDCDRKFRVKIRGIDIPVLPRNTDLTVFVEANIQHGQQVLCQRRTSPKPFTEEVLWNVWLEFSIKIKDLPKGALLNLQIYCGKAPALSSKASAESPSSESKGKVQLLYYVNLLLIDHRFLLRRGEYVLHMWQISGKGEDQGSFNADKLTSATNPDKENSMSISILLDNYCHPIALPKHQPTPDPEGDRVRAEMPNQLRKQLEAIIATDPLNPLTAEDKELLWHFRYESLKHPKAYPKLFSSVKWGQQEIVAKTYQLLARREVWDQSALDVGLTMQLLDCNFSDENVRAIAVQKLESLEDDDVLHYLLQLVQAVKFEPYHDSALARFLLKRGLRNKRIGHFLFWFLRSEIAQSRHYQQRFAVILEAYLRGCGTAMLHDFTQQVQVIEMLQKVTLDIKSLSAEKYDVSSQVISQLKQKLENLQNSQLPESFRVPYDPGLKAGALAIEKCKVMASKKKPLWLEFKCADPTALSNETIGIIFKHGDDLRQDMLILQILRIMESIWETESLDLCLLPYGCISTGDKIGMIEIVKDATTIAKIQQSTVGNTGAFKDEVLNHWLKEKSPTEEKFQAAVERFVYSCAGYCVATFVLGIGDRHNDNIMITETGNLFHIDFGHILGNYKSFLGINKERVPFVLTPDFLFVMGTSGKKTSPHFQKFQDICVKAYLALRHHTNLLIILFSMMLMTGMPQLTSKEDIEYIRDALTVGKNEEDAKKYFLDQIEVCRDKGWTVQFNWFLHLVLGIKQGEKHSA

Ki	SMILES
< 100 nM	CCO[C@@H]1c2nc(-c3cnc(OC)c(OC)c3)cc(C)c2C(=O)N1c1cnn(CC(F)(F)F)c1
< 100 nM	COc1ncc(-c2cc(C)c3c(n2)C(C)(C)N(c2cnn(CC(F)(F)F)c2)C3=O)cc1C(=O)NCC#N
< 100 nM	COc1cc(-c2cc(C)c3c(n2)CN(c2cnn(CC(F)(F)F)c2)C3=O)ccc1C
< 100 nM	CCOc1cncc(-c2cc(C)c3c(n2)[C@@H](C)N(c2cnn(CC(F)(F)F)c2)C3=O)c1
< 100 nM	CCNC(=O)c1cc(-c2cc(C)c3c(n2)C2(COC2)N(c2cnn(CC(F)(F)F)c2)C3=O)cnc1C
< 100 nM	CC[C@]1(OC)c2nc(-c3cnc(OC)c(OC)c3)cc(C)c2C(=O)N1c1cnn(CC(F)(F)F)c1
100 to 490 nM and < 100 nM	Cc1cc(-c2cncc([S+](C)[O-])c2)nc2c1C(=O)N(c1cnn(CC(F)(F)F)c1)C2(C)C (stereo unspecified)
< 100 nM	Cc1cc(-c2cc(O)cs2)nc2c1C(=O)N(c1cnn(CC(F)(F)F)c1)C2
< 100 nM	COc1cncc(-c2cc(C)c3c(n2)C2(CNC2)N(c2cnn(CC(F)(F)F)c2)C3=O)c1
< 100 nM	Cc1cc(-c2cncc(C(=O)NCC(F)(F)F)c2)nc2c1C(=O)N(c1cnn(CC(F)(F)F)c1)C2(C)C
< 100 nM	COc1cc(-c2cc(C)c3c(n2)[C@]2(CCCO2)N(c2cnn(CC(F)(F)F)c2)C3=O)cnc1OC
< 100 nM	Cc1cc(-c2cncc(S(=O)(=O)C(C)C)c2)nc2c1C(=O)N(c1cnn(CC(F)(F)F)c1)C2(C)C
< 100 nM	COc1cc(-c2cc(C)c3c(n2)C2(CC2)N(c2cnn(CC(F)(F)F)c2)C3=O)cnc1OC(C)C

The remaining lines, values behind:

SMILES	Ki
COc1cc(-c2cc(C)c3c(n2)CN(c2ccnc(C)c2)C3=O)cnc1OC	< 100 nM
COc1cncc(-c2cc(C)c3c(n2)CN(c2cc[nH]n2)C3=O)c1	< 100 nM
COc1cncc(-c2cc(C)c3c(n2)CN(c2cnn(CC(F)F)c2)C3=O)c1	< 100 nM
CCOc1cncc(-c2cc(C)c3c(n2)C(C)(C)N(c2cnn(CC#N)c2)C3=O)c1	< 100 nM
COc1cc(-c2ccc3c(n2)CN(c2ccc(N4CCC(O)CC4)nc2)C3=O)cnc1OC	< 100 nM
COc1cc(-c2ccc3c(n2)CN(c2cnn(CCN4CCOCC4)c2)C3=O)cnc1OC	100 to 490 nM
COc1cncc(-c2cc(C)c3c(n2)C(C)N(c2cnccn2)C3=O)c1 (stereo unspecified)	100 to 490 nM
COc1cncc(-c2cc(C)c3c(n2)[C@@H](C)N(c2cn[nH]c2)C3=O)c1	< 100 nM
COc1cc(-c2cc(N3CCC3)c3c(n2)CN(c2cnn(CC(F)(F)F)c2)C3=O)cnc1OC	< 100 nM
COc1cc(-c2ccc3c(n2)C(O)N(c2cnn(CC(F)(F)F)c2)C3=O)cnc1OC (stereo unspecified)	< 100 nM
Cc1cc(-c2cncc(OC(F)F)c2)nc2c1C(=O)N(c1cnn(CC(F)F)c1)C2	< 100 nM
COCCOC1c2nc(-c3cnc(OC)c(OC)c3)ccc2C(=O)N1c1cnn(CC(F)(F)F)c1 (stereo unspecified)	< 100 nM
COc1cc(-c2cc(C)c3c(n2)[C@@H](C)N(c2cnn(C[C@@H](C)O)c2)C3=O)cnc1OC	< 100 nM
COc1cc(-c2ccc3c(n2)C(C)N(c2cn(CC(F)(F)F)cn2)C3=O)cnc1OC (stereo unspecified)	< 100 nM
COc1cc(-c2ccc3c(n2)CN(c2cnn(CCn4cncn4)c2)C3=O)cnc1OC	< 100 nM
COc1cc(-c2ccc3c(n2)[C@@H](C)N(c2ccn(CC(C)(C)O)n2)C3=O)cnc1OC	< 100 nM
COc1ncc(-c2ccc3c(n2)CN(c2cnn(CC#N)c2)C3=O)c(OC)n1	100 to 490 nM
COc1cc(-c2cc(C)c3c(c2)CN(c2cnn(CC#N)c2)C3=O)cnc1OC	< 100 nM

Reference: the Kinase Knowledgebase extract (Sharma et al. 2016)
